Assay results taken from patent US9340507B2, “Substituted 4-pyridones and their use as inhibitors of neutrophil elastase activity” (Boehringer Ingelheim International GmbH, priority 2012, dated 2016).

The molecules below were run against Human neutrophil elastase (Homo sapiens (Human), UniProt P08246) (assay: Human Neutrophil Elastase Assay). Settings: substrate MeOSuc-Ala-Ala-Pro-Val-AMC 250 μM, pH 7.5, fluorescence.
Format: biochemical
Experimental: Human Neutrophil Elastase Assay
All other materials were of the highest grade commercially available.
The following buffers were used: Compound buffer: 100 mM Tris, 500 mM NaCl, adjusted to pH 7.5; Assay buffer: 100 mM Tris, 500 mM NaCl, adjusted to pH 7.5, containing 0.01% BSA.
Assay conditions: Test compounds were prediluted in DMSO and subsequently in compound buffer (5% DMSO final). […] After inactivation of the enzyme, fluorescence intensities were measured at 380 nm excitation and 460 nm emission wavelengths.
Each plate contains wells with a high value control (DMSO+enzyme+substrate) and wells with a low value control (DMSO+inactivated enzyme+substrate). IC50 values were estimated using a sigmoidal concentration response curve with variable slope. Means of low values were taken as 0%, means of high values as 100%. IC50 values of selected compound in the Neutrophil Elastase assay: […]

Chain of Human neutrophil elastase (P08246 30-267): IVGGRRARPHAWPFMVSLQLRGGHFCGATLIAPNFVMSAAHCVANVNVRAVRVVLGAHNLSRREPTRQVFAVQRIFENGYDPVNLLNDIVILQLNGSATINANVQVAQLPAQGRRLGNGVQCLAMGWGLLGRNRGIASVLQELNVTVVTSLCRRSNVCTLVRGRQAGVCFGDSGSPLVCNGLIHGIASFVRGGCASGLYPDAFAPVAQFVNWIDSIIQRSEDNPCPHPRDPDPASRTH

IC50 [nM]	Structure (SMILES)
40	Cc1c(-c2cccc(C(F)(F)F)c2)c(=O)c(C(=O)NCc2ccc(S(N)(=O)=O)cc2)cn1C(C)C [Example 3.7]
62	Cc1c(-c2cccc(C(F)(F)F)c2)c(=O)c(C(=O)NCc2cnn(C)c2)cn1C(C)C [Example 3.4]
61	Cc1c(-c2ccc(F)c(C(F)F)c2)c(=O)c(C(=O)NCc2ccc(S(C)(=O)=O)cc2)cn1C(C)C [Example 5.4]
15	Cc1c(-c2ccnc(C(F)(F)F)c2)c(=O)c(C(=O)NCc2ccc3c(c2)CCS3(=O)=O)cn1C(C)C [Example 29.3, 1-Isopropyl-2-methyl-4-oxo-2′-trifluoromethyl-1,4-dihydro-[3,4]bipyridinyl-5-carboxylic acid (1,1-dioxo-2,3-dihydro-1H-1λ^6-benzo[b]thiophen-5-ylmethyl)-amide]
90	Cc1c(-c2cccc(C(F)(F)F)c2)c(=O)c(C(=O)NCc2cccnn2)cn1C(C)C [Example 3.3]
5.2	Cc1c(-c2cccc(C(F)(F)F)c2)c(=O)c(C(=O)NCc2ccc(S(=O)(=O)C3CC3)cc2)cn1C(C)C [Example 31, 1-Isopropyl-6-methyl-4-oxo-5-(3-trifluoromethyl-phenyl)-1,4-dihydro-pyridine-3-carboxylic acid 4-cyclopropanesulfonyl-benzylamide]
34	Cc1c(-c2cccc(C(F)(F)F)c2)c(=O)c(C(=O)NCc2ccc(S(C)(=O)=O)cc2)cn1CCF [Example 45, 1-(2-Fluoro-ethyl)-6-methyl-4-oxo-5-(3-trifluoromethyl-phenyl)-1,4-dihydro-pyridine-3-carboxylic acid 4-methanesulfonyl-benzylamide]
5.3	Cc1c(-c2cccc(C(F)(F)F)c2)c(=O)c(C(=O)NCc2cn3c(n2)S(=O)(=O)CC3)cn1C(C)C [Example 38, 1-Isopropyl-6-methyl-4-oxo-5-(3-trifluoromethyl-phenyl)-1,4-dihydro-pyridine-3-carboxylic acid (1,1-dioxo-2,3-dihydro-1H-1λ^6-imidazo[2,1-b]thiazol-6-ylmethyl)-amide]
55	Cc1nnc(CNC(=O)c2cn(C3CCC3)c(C)c(-c3cccc(C(F)F)c3)c2=O)o1 [Example 24.2, 1-Cyclobutyl-5-(3-difluoromethyl-phenyl)-6-methyl-4-oxo-1,4-dihydro-pyridine-3-carboxylic acid (5-methyl-[1,3,4]oxadiazol-2-ylmethyl)-amide]
9	Cc1c(-c2cccc(C(F)(F)F)c2)c(=O)c(C(=O)NCc2ccc([S+](C)[O-])cc2)cn1C(C)C (racemic) [Example 27.1, 1-Isopropyl-6-methyl-4-oxo-5-(3-trifluoromethyl-phenyl)-1,4-dihydro-pyridine-3-carboxylic acid 4-methanesulfinyl-benzylamide]
30	Cc1c(-c2cccc(C(F)(F)F)c2)c(=O)c(C(=O)NCc2ccc(S(C)(=O)=O)cn2)cn1CC(C)C [Example 2.3]
18	Cc1c(-c2cccc(C(F)F)c2)c(=O)c(C(=O)NCc2ccc(Cn3ccnc3)cc2)cn1C(C)C [Example 4.11]
6	Cc1cc(CNC(=O)c2cn(C(C)C)c(C)c(-c3cccc(C(F)F)c3)c2=O)ccc1S(C)(=O)=O [Example 28.2, 5-(3-Difluoromethyl-phenyl)-1-isopropyl-6-methyl-4-oxo-1,4-dihydro-pyridine-3-carboxylic acid 4-methanesulfonyl-3-methyl-benzylamide]
45	COC[C@@H](C)n1cc(C(=O)NCc2ccc(S(C)(=O)=O)cc2)c(=O)c(-c2cccc(C(F)F)c2)c1C [Example 44, (R)-5-(3-Difluoromethyl-phenyl)-1-(2-methoxy-1-methyl-ethyl)-6-methyl-4-oxo-1,4-dihydro-pyridine-3-carboxylic acid 4-methanesulfonyl-benzylamide]
57	Cc1nnc(CNC(=O)c2cn(C3CCC3)c(C)c(-c3cccc(C(F)(F)F)c3)c2=O)o1 [Example 24.1, 1-Cyclobutyl-6-methyl-4-oxo-5-(3-trifluoromethyl-phenyl)-1,4-dihydro-pyridine-3-carboxylic acid (5-methyl-[1,3,4]oxadiazol-2-ylmethyl)-amide]
63	CC[C@H](C)n1cc(C(=O)NCc2ccc(S(C)(=O)=O)cn2)c(=O)c(-c2ccnc(C(F)(F)F)c2)c1C [Example 20.3, (S)-1-sec-Butyl-2-methyl-4-oxo-2′-trifluoromethyl-1,4-dihydro-[3,4]bipyridinyl-5-carboxylic acid (5-methanesulfonyl-pyridin-2-ylmethyl)-amide]
8.1	COC[C@H](C)n1cc(C(=O)NCc2ccc(S(C)(=O)=O)cc2)c(=O)c(-c2cccc(C(F)F)c2)c1C [Example 42, (S)-5-(3-Difluoromethyl-phenyl)-1-(2-methoxy-1-methyl-ethyl)-6-methyl-4-oxo-1,4-dihydro-pyridine-3-carboxylic acid 4-methanesulfonyl-benzylamide]

IC50 [nM]	Structure (SMILES)
16	Cc1c(-c2cccc(C(F)F)c2)c(=O)c(C(=O)NCc2ccc(S(C)(=O)=O)c(F)c2)cn1C(C)C [Example 33, 5-(3-Difluoromethyl-phenyl)-1-isopropyl-6-methyl-4-oxo-1,4-dihydro-pyridine-3-carboxylic acid 3-fluoro-4-methanesulfonyl-benzylamide]
97	Cc1c(-c2cccc(C(F)(F)F)c2)c(=O)c(C(=O)NCc2ccncc2)cn1C(C)C [Example 3.2]
20	Cc1c(-c2cccc(C(F)F)c2)c(=O)c(C(=O)NCc2ccc(CN3CCCC3=O)cc2)cn1C(C)C [Example 4.13]
27	Cc1c(-c2cccc(C(F)(F)F)c2)c(=O)c(C(=O)NCc2ccc(S(C)(=O)=O)cn2)cn1C1CCOC1 (stereo not shown) [Example 22, 6-Methyl-4-oxo-1-(tetrahydro-furan-3-yl)-5-(3-trifluoromethyl-phenyl)-1,4-dihydro-pyridine-3-carboxylic acid (5-methanesulfonyl-pyridin-2-ylmethyl)-amide]
91	Cc1c(-c2cncc(C(F)(F)F)c2)c(=O)c(C(=O)NCc2ccc(S(C)(=O)=O)cc2)cn1C(C)C [Example 5.5]
72	Cc1c(-c2cccc(C(F)F)c2)c(=O)c(C(=O)NCc2cccc(=O)[nH]2)cn1C(C)C [Example 4.4]
69	Cc1c(-c2cccc(C(F)F)c2)c(=O)c(C(=O)NCc2ccc(N3CCNC3=O)cc2)cn1C(C)C [Example 4.12]
8	CC[C@@H](C)n1cc(C(=O)NCc2ccc(S(C)(=O)=O)cc2)c(=O)c(-c2cccc(C(F)F)c2)c1C [Example 11.1, (R)-1-sec-Butyl-5-(3-difluoromethyl-phenyl)-6-methyl-4-oxo-1,4-dihydro-pyridine-3-carboxylic acid 4-methanesulfonyl-benzylamide]
3	Cc1c(-c2cccc(C(F)F)c2)c(=O)c(C(=O)NCc2ccc3c(c2)CCS3(=O)=O)cn1C(C)C [Example 29.2, 5-(3-Difluoromethyl-phenyl)-1-isopropyl-6-methyl-4-oxo-1,4-dihydro-pyridine-3-carboxylic acid (1,1-dioxo-2,3-dihydro-1H-1λ^6-benzo[b]thiophen-5-ylmethyl)-amide]
24	CCC(CC)n1cc(C(=O)NCc2ccc(S(C)(=O)=O)cc2)c(=O)c(-c2ccnc(C(F)(F)F)c2)c1C [Example 15.3, 1-(1-Ethyl-propyl)-2-methyl-4-oxo-2′-trifluoromethyl-1,4-dihydro-[3,4]bipyridinyl-5-carboxylic acid 4-methanesulfonyl-benzylamide]
22	CC[C@H](C)n1cc(C(=O)NCc2nnc(C)o2)c(=O)c(-c2cccc(C(F)F)c2)c1C [Example 26, (S)-1-sec-Butyl-5-(3-difluoromethyl-phenyl)-6-methyl-4-oxo-1,4-dihydro-pyridine-3-carboxylic acid (5-methyl-[1,3,4]oxadiazol-2-ylmethyl)-amide]
46	CCC(CC)n1cc(C(=O)NCc2ccc(S(C)(=O)=O)cn2)c(=O)c(-c2ccnc(C(F)(F)F)c2)c1C [Example 23.3, 1-(1-Ethyl-propyl)-2-methyl-4-oxo-2′-trifluoromethyl-1,4-dihydro-[3,4]bipyridinyl-5-carboxylic acid (5-methanesulfonyl-pyridin-2-ylmethyl)-amide]
7	Cc1cc(CNC(=O)c2cn(C(C)C)c(C)c(-c3cccc(C(F)(F)F)c3)c2=O)ccc1S(C)(=O)=O [Example 28.1, 1-Isopropyl-6-methyl-4-oxo-5-(3-trifluoromethyl-phenyl)-1,4-dihydro-pyridine-3-carboxylic acid 4-methanesulfonyl-3-methyl-benzylamide]
19	Cc1c(-c2ccc(F)c(C(F)(F)F)c2)c(=O)c(C(=O)NCc2ccc(S(C)(=O)=O)cc2)cn1C(C)C [Example 5.2]
27	Cc1cc(S(C)(=O)=O)ccc1CNC(=O)c1cn(C(C)C)c(C)c(-c2cccc(C(F)F)c2)c1=O [Example 37, 5-(3-Difluoromethyl-phenyl)-1-isopropyl-6-methyl-4-oxo-1,4-dihydro-pyridine-3-carboxylic acid 4-methanesulfonyl-2-methyl-benzylamide]
27	Cc1cc(CNC(=O)c2cn(C(C)C)c(C)c(-c3ccnc(C(F)(F)F)c3)c2=O)ccc1S(C)(=O)=O [Example 28.3, 1-Isopropyl-2-methyl-4-oxo-2′-trifluoromethyl-1,4-dihydro-[3,4]bipyridinyl-5-carboxylic acid 4-methanesulfonyl-3-methyl-benzylamide]

Structure (SMILES)	IC50 [nM]
Cc1c(-c2cccc(C(F)(F)F)c2)c(=O)c(C(=O)NCc2ccc(S(C)(=O)=O)cc2)cn1CC1CC1(F)F (stereo not shown) [Example 1.7]	37
